Test [1] relates to SMN2-linked luciferase-reporter gene construct. Kind of test: SMN Splice Reporter Assay (SMN2-linked luciferase reporter). Type of test: cell-based. The following applies: for EC50: cervical carcinoma cell lines, SMN2 splice luciferase reporter; for Fold Increase: fold-increase of luciferase over baseline reading of transformed cells without any test compound. Summed up: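 Cervical carcinoma cells carrying an SMN2-luciferase splicing reporter, in-frame only with exon 7 inclusion, were treated with compound. Luciferase activity reported as fold increase over untreated transformed cells, with EC50 derived.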
Background: In a reporter assay the amount or activity of a reporter protein is the signal.

Test [2] deals with SMN-containing gems in type 1 SMA patient fibroblasts (3813 cells). Kind of test: SMN-containing gem count in SMA patient fibroblasts. The class given is cell-based, human. The conditions noted are these: 48 hours, 3813 fibroblasts. An excerpt:
SMN protein can be found in punctate nuclear particles called “gems” (Liu and Dreyfuss, EMBO J, 15 (14): 3555-3565 (1996)). In fibroblast cells derived from SMA patients, the number of gems corresponds to disease severity as follows: severe type 1 patients have approximately 5 gems per 100 nuclei; mild type 3 patients have 20-50 gems per 100 nuclei; normal individuals have approximately 100-150 gems per 100 nuclei (Coovert et al., Hum Mol Genet, 6 (8): 1205-1214 (1997), Young et al., Exp Cell Res, 265 (2): 252-261 (2001)).
Gems are detectable by immunohistochemistry and gem counts in patient fibroblasts have been used to test the ability of compounds to increase SMN protein levels (Mattis et al., Hum Genet, 120: 589-601 (2006)). Following these methods, fibroblast cells from a type 1 SMA patient (3813 cells, Coriell Cell Repositories) were treated for 48 hours with a compound of the invention. The cells were then fixed and incubated with a monoclonal antibody against SMN (4B7, Wolstencroft et al., Hum Mol Genet, 14: 1199-1210 (2005)). A FITC-conjugated anti-mouse secondary antibody was used to visualize the labeled gems. A positive control in these experiments was provided by fibroblasts from the same patient treated with 1000 μM valproic acid.

In test [3] the test system is translational stop codon read-through, human SMN2 open reading frame-luciferase. Kind of test: Translational read-through luciferase reporter assay (luciferase preceded by the open reading frame of the human SMN2 gene). The class given is cell-based. Summed up:
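Cell-based reporter with luciferase downstream of the human SMN2 open reading frame, carrying a translational stop codon within the coding sequence; compounds promoting stop-codon read-through yield active luciferase, detected by chemiluminescence.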

The subject of test [4] is SMN protein. The test is described as follows: Western blot of total cellular SMN protein in SMA type I fibroblasts. The class given is cell-based, human. The conditions noted are these: 48 hours, 3813 cells. On the procedure: Western blots were performed using standard methods. SMA type I fibroblasts (3813 cells; Coriell Cell Repositories) were treated with compounds for 48 hours. Monoclonal SMN anti-SMN antibody 4B7 (Wolstencroft et al., Hum Mil Genet, 14:1199-1210 (2005)) was used to identify SMN protein. Tubulin was used as an internal normalization standard. DMSO treatment serves as the negative control.
On the technique in general: A western blot detects proteins with antibodies after separation by electrophoresis.

The subject of test [5] is SMA model mouse fetuses. The following applies: administered in utero; cited from earlier work.
Test [6] relates to SMN protein. The following applies: cited from earlier work.

Each structure is given as a SMILES string.

Usually EC50 stands for the concentration at which the effect is half-maximal. High values mean a less potent agent, low ones a more potent agent. As usually defined, the maximal fold induction is the signal under treatment as a multiple of the control signal.

Regarding `COc1ccc2c(c1)C(=O)N(c1ccc3occc3c1)C2` [Example 119047], in test [1], the EC50 is 59 nM and the “Fold Increase” value was 1.456. In addition, the “Average number of gems per 100 nuclei” value in test [2] (0.1 μM compound) came out at 32. Further, in test [3], the EC50 came out at 4280 nM and the maximal fold induction came to 2.04. Moreover, the “SMN:Tubulin ratio as % of Vehicle Control” value (“SMN:Tubulin ratio as %” for short) in test [4] (0.1 μM) was found to be 125.19%.

Regarding `COc1ccc2c(c1)C(=O)N(c1ccc3ncsc3c1)C2` [Example 120596], in test [1], the midpoint of the response, the EC50, lay at 126 nM and the “Fold Increase” value is 1.591. In addition, the “Average number of gems per 100 nuclei” value in test [2] (0.1 μM compound) is 148. Further, in test [3], the EC50 stood at 1720 nM and the maximal fold induction worked out at 2.23. For the same compound, the “SMN:Tubulin ratio as %” value in test [4] (1 μM) was determined as 124.41%.

As to `COc1ccc2c(c1)C(=O)N(c1ccc3cn[nH]c3c1)C2` [Example 120602], in test [1], the EC50 came to 154 nM and the “Fold Increase” value turned out to be 1.412. For the same compound, the “Average number of gems per 100 nuclei” value in test [2] (0.1 μM compound) worked out at 68. In test [3], the response was half-maximal at 1110 nM (EC50) and the maximal fold induction is 2.12. Further, in test [4] (1 μM), the “SMN:Tubulin ratio as %” value was 123.67%.

For the compound `COc1ccc2c(c1)C(=O)N(c1ccc3c(c1)cc(C)n3C(C)C)C2` [Example 123714], in test [1], it took 2630 nM to reach a half-maximal effect (EC50) and the “Fold Increase” value is given as 1.863. The “Average number of gems per 100 nuclei” value in test [2] (1 μM compound) is reported as 84. Also, in test [3], the EC50 was 1900 nM and the maximal fold induction was 1.18.

In the case of `CN(C)c1ccc2c(c1)C(=O)N(c1ccc3ncccc3c1)C2` [Example 124032], in test [1], the midpoint of the response, the EC50, lay at 9 nM and the “Fold Increase” value turned out to be 1.659. Further, the “Average number of gems per 100 nuclei” value in test [2] (1 μM compound) is 65. In addition, in test [3], the maximal fold induction was 1.02.

In the case of `CC(C)Oc1ccc2c(c1)C(=O)N(c1ccc3ccn(C)c3c1)C2` [Example 124326], in test [1], the concentration for a half-maximal effect (EC50) was found to be 170 nM and the “Fold Increase” value is reported as 1.666. The “Average number of gems per 100 nuclei” value in test [2] (1 μM compound) is 98. For the same compound, in test [3], the 50% effective concentration (EC50) stood at 129 nM and the maximal fold induction worked out at 0.946. Moreover, in test [4] (3 μM), the “SMN:Tubulin ratio as %” value came out at 147.687%.

In the case of `CN(C)c1ccc2c(c1)C(=O)N(c1ccc3ccn(C)c3c1)C2` [Example 124771], in test [1], the EC50 worked out at 43 nM and the “Fold Increase” value is given as 1.689. Besides, in test [2] (1 μM compound), the “Average number of gems per 100 nuclei” value was 50. In addition, in test [3], a half-maximal response (EC50) required 4210 nM and the maximal fold induction was determined as 1.8.

In the case of `CC(C(=O)O)c1ccc(N2Cc3ccccc3C2=O)cc1` (stereo not drawn) [Indoprofen, indoprofen], in test [1] (result in words), the luciferase activity entry is given as “increases luciferase activity”. Further, the “survival of SMA model mouse fetuses” value in test [5] is recorded as “increase survival”. In addition, the “production of SMN from the endogenous SMN2 gene” value in test [6] (SMA patient fibroblasts) is listed as “increase in production of SMN”. The “level of expression of SMN protein” value in test [6] (cultured cells, Lunn et al. 2004) is “increases the level of expression of SMN protein”.

Values taken from US20100267712A1, “ISOINDOLINE COMPOUNDS FOR THE TREATMENT OF SPINAL MUSCULAR ATROPHY AND OTHER USES” (The United States of America, as represented by the …, priority 2007, published 2010).
